# According to publication PMC4967823, “A single amino acid substitution in a chitinase of the legume Medicago truncatula is sufficient to gain Nod-factor hydrolase activity” (Open Biology, 2016):
# Molecular target: T1, MtCHIT5b (Medicago truncatula, UniProt A0A072UR65)
# T1 construct: gene CHIT5B; without predicted signal peptide, N-terminal 6xHis tag (pET28b or pET32a for variants), E. coli BL21(DE3), Ni-NTA
# Experiment: reverse-phase HPLC (C18) hydrolysis assay
# Type: biochemical
# Details: 25 mM sodium acetate pH 5.0, 37 C
# Excerpt: reverse-phase HPLC (C18) hydrolysis assay on MtCHIT5b
# T1 sequence (A0A072UR65 27-379): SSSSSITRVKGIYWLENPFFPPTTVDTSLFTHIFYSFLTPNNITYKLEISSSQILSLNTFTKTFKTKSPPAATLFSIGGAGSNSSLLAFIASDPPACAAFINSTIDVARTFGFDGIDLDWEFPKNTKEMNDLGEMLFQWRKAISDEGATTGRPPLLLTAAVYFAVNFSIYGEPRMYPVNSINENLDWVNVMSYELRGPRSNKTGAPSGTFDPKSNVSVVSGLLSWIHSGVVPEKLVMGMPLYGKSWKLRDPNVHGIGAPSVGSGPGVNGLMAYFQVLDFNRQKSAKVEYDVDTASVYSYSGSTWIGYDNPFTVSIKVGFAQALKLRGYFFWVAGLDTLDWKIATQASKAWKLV
row,Km [µM],Structure (SMILES)
1,96.9 ± 18.8,"CCCCCC/C=C\CCCCC/C=C/C(=O)N[C@H]1[C@H](O[C@H]2[C@H](O)[C@@H](NC(C)=O)[C@H](O[C@H]3[C@H](O)[C@@H](NC(C)=O)[C@H](O[C@H]4[C@H](O)[C@@H](NC(C)=O)C(O)O[C@@H]4COS(=O)(=O)O)O[C@@H]3CO)O[C@@H]2CO)O[C@H](COC(C)=O)[C@@H](O)[C@@H]1O (some centres unmarked) [NodSm-IV(C16 : 2, Ac, S)]"
2,58.6 ± 11.4,"CCCCCC/C=C\CCCCC/C=C/C(=O)N[C@H]1[C@H](O[C@H]2[C@H](O)[C@@H](NC(C)=O)[C@H](O[C@H]3[C@H](O)[C@@H](NC(C)=O)[C@H](O[C@H]4[C@H](O)[C@@H](NC(C)=O)C(O)O[C@@H]4COS(=O)(=O)O)O[C@@H]3CO)O[C@@H]2CO)O[C@H](CO)[C@@H](O)[C@@H]1O (some centres unmarked) [NodSm-IV(C16 : 2, S)]"
